In patent US20260365647A1, “AKT1 MODULATORS” (Alterome Therapeutics, Inc., priority 2022, published 2026) one finds IC50 data, which are given here for 25 molecules.

For the experiment, the target named is T1, AKT1-E17K (Homo sapiens, UniProt P31749, E17K).
T1 construct: host or cells: HEK-293 (ATCC CRL-1573)
Put plainly: NanoBRET Target Engagement (TE) Assay. The class given is cell-based. Put shortly: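 Live cells transiently expressing NanoLuc-AKT1 E17K fusion, incubated 2 h with tracer and compound before substrate plus extracellular NanoLuc inhibitor were added. BRET read at 450/600 nm; EC50 from variable-slope sigmoidal fit of tracer displacement.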
On the technique in general: BRET reads energy transfer from a luciferase to a nearby fluorophore.

Some results are limits rather than exact numbers.

T1 sequence (P31749 whole entry E17K): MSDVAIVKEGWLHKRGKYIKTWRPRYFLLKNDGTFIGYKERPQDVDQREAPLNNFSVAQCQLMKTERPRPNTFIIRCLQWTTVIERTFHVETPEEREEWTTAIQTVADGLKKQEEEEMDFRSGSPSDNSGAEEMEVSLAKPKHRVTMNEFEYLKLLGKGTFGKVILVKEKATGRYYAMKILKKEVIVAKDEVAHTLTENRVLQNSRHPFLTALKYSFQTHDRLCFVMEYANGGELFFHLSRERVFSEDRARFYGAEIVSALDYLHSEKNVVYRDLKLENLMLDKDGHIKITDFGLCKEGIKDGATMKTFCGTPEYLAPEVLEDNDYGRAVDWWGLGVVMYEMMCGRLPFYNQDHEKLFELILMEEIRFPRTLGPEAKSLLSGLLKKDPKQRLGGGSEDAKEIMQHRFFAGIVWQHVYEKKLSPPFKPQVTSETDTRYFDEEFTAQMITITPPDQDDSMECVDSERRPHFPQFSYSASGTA

Take `Nc1ncccc1-c1nc2ccc(-c3ccccc3)nc2n1-c1ccc(CN2CC[C@@H](NC(=O)c3ccc(C=O)c(O)c3)C2)cc1` [Example 64, (R)—N-(1-(4-(2-(2-Aminopyridin-3-yl)-5-phenyl-3H-imidazo[4,5-b]pyridin-3-yl)benzyl)pyrrolidin-3-yl)-4-formyl-3-hydroxybenzamide]: the IC50 (usually the midpoint of a concentration-inhibition curve) lay within 60 to 600 nM.

`Nc1ncccc1-c1nc2ccc(N3CCOCC3)nc2n1-c1ccc(CN2CCC(NC(=O)c3ccc(O)c(C=O)c3)CC2)cc1` [Example 52, N-(1-(4-(2-(2-Aminopyridin-3-yl)-5-morpholino-3H-imidazo[4,5-b]pyridin-3-yl)benzyl)piperidin-4-yl)-3-formyl-4-hydroxybenzamide] had an IC50 of 15 to 60 nM.

Regarding `Nc1ncccc1-c1nc2ccc(-c3ccccc3)nc2n1-c1ccc(CN2CCC3(CCCN(c4ccc(C=O)c(O)c4)C3)C2)cc1` (stereo not shown) [Example 88, 4-(2-(4-(2-(2-Aminopyridin-3-yl)-5-phenyl-3H-imidazo[4,5-b]pyridin-3-yl)benzyl)-2,7-diazaspiro[4.5]decan-7-yl)-2-hydroxybenzaldehyde], the IC50 fell in the range of 60 to 600 nM.

`Nc1ncccc1-c1nc2ccc(-c3ccccc3)nc2n1-c1ccc(CN2C[C@@H]3C[C@H]2CN3c2ccc(C=O)c(O)c2)cc1` [Example 123, 4-((1S,4S)-5-(4-(2-(2-Aminopyridin-3-yl)-5-phenyl-3H-imidazo[4,5-b]pyridin-3-yl)benzyl)-2,5-diazabicyclo[2.2.1]heptan-2-yl)-2-hydroxybenzaldehyde] registered an IC50 of 60 to 600 nM.

`Nc1ncccc1-c1nc2ccc(-c3cccc(F)c3)nc2n1-c1ccc(CN2CCN(C(=O)c3ccc(C=O)c(O)c3)CC2)cc1` [Example 41, 4-(4-(4-(2-(2-Aminopyridin-3-yl)-5-(3-fluorophenyl)-3H-imidazo[4,5-b]pyridin-3-yl)benzyl)piperazine-1-carbonyl)-2-hydroxybenzaldehyde] gave an IC50 of 60 to 600 nM.

`N#Cc1ccccc1-c1ccc2nc(-c3cccnc3N)n(-c3ccc(CN4CCN(C(=O)c5ccc(C=O)c(O)c5)CC4)cc3)c2n1` [Example 37, 2-(2-(2-Aminopyridin-3-yl)-3-(4-((4-(4-formyl-3-hydroxybenzoyl)piperazin-1-yl)methyl)phenyl)-3H-imidazo[4,5-b]pyridin-5-yl)benzonitrile]: the IC50 is 60 to 600 nM.

Consider `Nc1ncccc1-c1nc2ccc(-c3ccccc3)nc2n1-c1ccc(CN2CCC3(C2)CN(C(=O)c2ccc(C=O)c(O)c2)C3)cc1` [Example 153, 4-(6-(4-(2-(2-aminopyridin-3-yl)-5-phenyl-3H-imidazo[4,5-b]pyridin-3-yl)benzyl)-2,6-diazaspiro[3.4]octane-2-carbonyl)-2-hydroxybenzaldehyde], for which the IC50 is 60 to 600 nM.

Take `Nc1ncccc1-c1nc2ccc(-c3ccccc3)nc2n1-c1ccc(CN2C[C@@H]3CN(C(=O)c4ccc(O)c(C=O)c4)C[C@@H]3C2)cc1` [Example 131, 5-((3aR,6aS)-5-(4-(2-(2-Aminopyridin-3-yl)-5-phenyl-3H-imidazo[4,5-b]pyridin-3-yl)benzyl)octahydropyrrolo[3,4-c]pyrrole-2-carbonyl)-2-hydroxybenzaldehyde]: the IC50 is 60 to 600 nM.

Take `Nc1ncccc1-c1nc2ccc(C3=CCCCC3)nc2n1-c1ccc(CN2CCN(C(=O)c3ccc(C=O)c(O)c3)CC2)cc1` [Example 151, 4-(4-(4-(2-(2-aminopyridin-3-yl)-5-(cyclohex-1-en-1-yl)-3H-imidazo[4,5-b]pyridin-3-yl)benzyl)piperazine-1-carbonyl)-2-hydroxybenzaldehyde]: the IC50 is above 600 nM.

Consider `Nc1ncccc1-c1nc2ccc(-c3ccccc3)nc2n1-c1ccc(CN2CCN(c3ccc(C=O)c(O)c3)C3(CC3)C2)cc1` [Example 108, 4-(7-(4-(2-(2-Aminopyridin-3-yl)-5-phenyl-3H-imidazo[4,5-b]pyridin-3-yl)benzyl)-4,7-diazaspiro[2.5]octan-4-yl)-2-hydroxybenzaldehyde], for which the concentration for half-maximal inhibition (IC50) fell in the range of 60 to 600 nM.

Take `Nc1ncccc1-c1nc2ccc(-c3cccc(Cl)c3)nc2n1-c1ccc(CN2CCN(C(=O)c3ccc(C=O)c(O)c3)CC2)cc1` [Example 43, 4-(4-(4-(2-(2-Aminopyridin-3-yl)-5-(3-chlorophenyl)-3H-imidazo[4,5-b]pyridin-3-yl)benzyl)piperazine-1-carbonyl)-2-hydroxybenzaldehyde]: the IC50 lay within 60 to 600 nM.

The molecule `Nc1ncccc1-c1nc2ccc(-c3ccccc3)nc2n1-c1ccc(CN2CC3CCC2CN3c2ccc(C=O)c(O)c2)cc1` (stereo not shown) [Example 127, 4-(5-(4-(2-(2-Aminopyridin-3-yl)-5-phenyl-3H-imidazo[4,5-b]pyridin-3-yl)benzyl)-2,5-diazabicyclo[2.2.2]octan-2-yl)-2-hydroxybenzaldehyde] registered an IC50 of 60 to 600 nM.

In turn, `Nc1ncccc1-c1nc2ccc(-c3ccccc3)nc2n1-c1ccc(CN2CCC3(CC2)CCN(C(=O)c2ccc(C=O)c(O)c2)C3)cc1` [Example 75, 4-(8-(4-(2-(2-Aminopyridin-3-yl)-5-phenyl-3H-imidazo[4,5-b]pyridin-3-yl)benzyl)-2,8-diazaspiro[4.5]decane-2-carbonyl)-2-hydroxybenzaldehyde] gave a half-inhibitory concentration (IC50) of 60 to 600 nM.

In turn, `CCN(C(=O)c1ccc(O)c(C=O)c1)C1CCN(Cc2ccc(-n3c(-c4cccnc4N)nc4ccc(-c5ccccc5)nc43)cc2)CC1` [Example 13, N-(1-(4-(2-(2-Aminopyridin-3-yl)-5-phenyl-3H-imidazo[4,5-b]pyridin-3-yl)benzyl)piperidin-4-yl)-N-ethyl-3-formyl-4-hydroxybenzamide] had an IC50 of 60 to 600 nM.

In the case of `Nc1ncccc1-c1nc2ccc(-c3ccccc3)nc2n1-c1ccc(CN2CCN(c3cccc(C=O)c3O)CC2)cc1` [Example 23, 3-(4-(4-(2-(2-aminopyridin-3-yl)-5-phenyl-3H-imidazo[4,5-b]pyridin-3-yl)benzyl)piperazin-1-yl)-2-hydroxybenzaldehyde], the 50% inhibitory concentration (IC50) was in the range of 60 to 600 nM.

`Nc1ncccc1-c1nc2ccc(C3=CCOCC3)nc2n1-c1ccc(CN2CCN(C(=O)c3ccc(O)c(C=O)c3)CC2)cc1` [Example 29, 5-(4-(4-(2-(2-Aminopyridin-3-yl)-5-(3,6-dihydro-2H-pyran-4-yl)-3H-imidazo[4,5-b]pyridin-3-yl)benzyl)piperazine-1-carbonyl)-2-hydroxybenzaldehyde] showed an IC50 of 60 to 600 nM.

`Nc1ncccc1-c1nc2ccc(-c3ccccc3)nc2n1-c1ccc(CN2CC3(CCN(C(=O)c4ccc(C=O)c(O)c4)C3)C2)cc1` [Example 93, 4-(2-(4-(2-(2-Aminopyridin-3-yl)-5-phenyl-3H-imidazo[4,5-b]pyridin-3-yl)benzyl)-2,6-diazaspiro[3.4]octane-6-carbonyl)-2-hydroxybenzaldehyde] returned a concentration for half-maximal inhibition (IC50) of 60 to 600 nM.

The molecule `Nc1ncccc1-c1nc2ccc(-c3ccccc3)nc2n1-c1ccc(CN2CC[C@]3(CCN(c4ccc(C=O)c(O)c4)C3)C2)cc1` [Example 103, (S)-4-(7-(4-(2-(2-Aminopyridin-3-yl)-5-phenyl-3H-imidazo[4,5-b]pyridin-3-yl)benzyl)-2,7-diazaspiro[4.4]nonan-2-yl)-2-hydroxybenzaldehyde] registered an IC50 of 60 to 600 nM.

Turning to `Nc1ncccc1-c1nc2ccc(-c3ccccc3)nc2n1-c1ccc(CN2C3CCC2CN(c2ccc(C=O)c(O)c2)C3)cc1` [Example 114, 4-(8-(4-(2-(2-Aminopyridin-3-yl)-5-phenyl-3H-imidazo[4,5-b]pyridin-3-yl)benzyl)-3,8-diazabicyclo[3.2.1]octan-3-yl)-2-hydroxybenzaldehyde], the IC50 fell in the range of 60 to 600 nM.

`Nc1ncccc1-c1nc2ccc(-c3ccccc3)nc2n1-c1ccc(CN2CCN(c3ccc(O)c(C=O)c3)CC2)cc1` [Example 10, 5-(4-(4-(2-(2-aminopyridin-3-yl)-5-phenyl-3H-imidazo[4,5-b]pyridin-3-yl)benzyl)piperazin-1-yl)-2-hydroxybenzaldehyde] yielded an IC50 of 60 to 600 nM.

On to `Nc1ncccc1-c1nc2ccc(-c3ccccc3)nc2n1-c1ccc(CN2CC(NC(=O)c3ccc(O)c(C=O)c3)C2)cc1` [Example 61, N-(1-(4-(2-(2-Aminopyridin-3-yl)-5-phenyl-3H-imidazo[4,5-b]pyridin-3-yl)benzyl)azetidin-3-yl)-3-formyl-4-hydroxybenzamide], for which the IC50 lay in the range of 15 to 60 nM.

`Nc1ncccc1-c1nc2cc(-c3ccccc3)cnc2n1-c1ccc(CN2CCN(c3ccc(C=O)c(O)c3)CC2)cc1` [Example 54, 4-(4-(4-(2-(2-Aminopyridin-3-yl)-6-phenyl-3H-imidazo[4,5-b]pyridin-3-yl)benzyl)piperazin-1-yl)-2-hydroxybenzaldehyde] had an IC50 of 60 to 600 nM.

As for `Nc1ncccc1-c1nc2ccc(-c3ccccc3)nc2n1-c1ccc(CN2CCC(NC(=O)c3cccc(C=O)c3O)CC2)cc1` [Example 49, N-(1-(4-(2-(2-aminopyridin-3-yl)-5-phenyl-3H-imidazo[4,5-b]pyridin-3-yl)benzyl)piperidin-4-yl)-3-formyl-2-hydroxybenzamide], the IC50 was 15 to 60 nM.

`C[C@H]1CN(Cc2ccc(-n3c(-c4cccnc4N)nc4ccc(-c5ccccc5)nc43)cc2)CCN1C(=O)c1ccc(O)c(C=O)c1` [Example 105, (S)-5-(4-(4-(2-(2-Aminopyridin-3-yl)-5-phenyl-3H-imidazo[4,5-b]pyridin-3-yl)benzyl)-2-methylpiperazine-1-carbonyl)-2-hydroxybenzaldehyde] came in with an IC50 of 60 to 600 nM.

Take `Nc1ncccc1-c1nc2ccc(-c3ccccc3)nc2n1-c1ccc(CN2CCN(c3ccc(C=O)c(O)c3F)CC2)cc1` [Example 26, 4-(4-(4-(2-(2-Aminopyridin-3-yl)-5-phenyl-3H-imidazo[4,5-b]pyridin-3-yl)benzyl)piperazin-1-yl)-3-fluoro-2-hydroxybenzaldehyde]: the IC50 fell in the range of 15 to 60 nM.
